Structures can show the parent of a compound that is named as a salt. Where two headings read alike, the source gives them in different places.
Tests used:
[1] = cn_pd bond, 13-membered ring
[2] = target: T1, Recombinant Human Anaplastic Lymphoma Kinase (Homo sapiens, UniProt Q9UM73); test: ALK HTRF kinase assay; format: biochemical; details: for ALK % inhibition at a concentration of 500 nM or 1 mM: compound at a concentration of 500 nM or 1 mM; for IC50: Table D1, 90 μM ATP
T1 construct: purchased Invitrogen, Carlsbad, Calif
T1 sequence (Q9UM73 19-1620): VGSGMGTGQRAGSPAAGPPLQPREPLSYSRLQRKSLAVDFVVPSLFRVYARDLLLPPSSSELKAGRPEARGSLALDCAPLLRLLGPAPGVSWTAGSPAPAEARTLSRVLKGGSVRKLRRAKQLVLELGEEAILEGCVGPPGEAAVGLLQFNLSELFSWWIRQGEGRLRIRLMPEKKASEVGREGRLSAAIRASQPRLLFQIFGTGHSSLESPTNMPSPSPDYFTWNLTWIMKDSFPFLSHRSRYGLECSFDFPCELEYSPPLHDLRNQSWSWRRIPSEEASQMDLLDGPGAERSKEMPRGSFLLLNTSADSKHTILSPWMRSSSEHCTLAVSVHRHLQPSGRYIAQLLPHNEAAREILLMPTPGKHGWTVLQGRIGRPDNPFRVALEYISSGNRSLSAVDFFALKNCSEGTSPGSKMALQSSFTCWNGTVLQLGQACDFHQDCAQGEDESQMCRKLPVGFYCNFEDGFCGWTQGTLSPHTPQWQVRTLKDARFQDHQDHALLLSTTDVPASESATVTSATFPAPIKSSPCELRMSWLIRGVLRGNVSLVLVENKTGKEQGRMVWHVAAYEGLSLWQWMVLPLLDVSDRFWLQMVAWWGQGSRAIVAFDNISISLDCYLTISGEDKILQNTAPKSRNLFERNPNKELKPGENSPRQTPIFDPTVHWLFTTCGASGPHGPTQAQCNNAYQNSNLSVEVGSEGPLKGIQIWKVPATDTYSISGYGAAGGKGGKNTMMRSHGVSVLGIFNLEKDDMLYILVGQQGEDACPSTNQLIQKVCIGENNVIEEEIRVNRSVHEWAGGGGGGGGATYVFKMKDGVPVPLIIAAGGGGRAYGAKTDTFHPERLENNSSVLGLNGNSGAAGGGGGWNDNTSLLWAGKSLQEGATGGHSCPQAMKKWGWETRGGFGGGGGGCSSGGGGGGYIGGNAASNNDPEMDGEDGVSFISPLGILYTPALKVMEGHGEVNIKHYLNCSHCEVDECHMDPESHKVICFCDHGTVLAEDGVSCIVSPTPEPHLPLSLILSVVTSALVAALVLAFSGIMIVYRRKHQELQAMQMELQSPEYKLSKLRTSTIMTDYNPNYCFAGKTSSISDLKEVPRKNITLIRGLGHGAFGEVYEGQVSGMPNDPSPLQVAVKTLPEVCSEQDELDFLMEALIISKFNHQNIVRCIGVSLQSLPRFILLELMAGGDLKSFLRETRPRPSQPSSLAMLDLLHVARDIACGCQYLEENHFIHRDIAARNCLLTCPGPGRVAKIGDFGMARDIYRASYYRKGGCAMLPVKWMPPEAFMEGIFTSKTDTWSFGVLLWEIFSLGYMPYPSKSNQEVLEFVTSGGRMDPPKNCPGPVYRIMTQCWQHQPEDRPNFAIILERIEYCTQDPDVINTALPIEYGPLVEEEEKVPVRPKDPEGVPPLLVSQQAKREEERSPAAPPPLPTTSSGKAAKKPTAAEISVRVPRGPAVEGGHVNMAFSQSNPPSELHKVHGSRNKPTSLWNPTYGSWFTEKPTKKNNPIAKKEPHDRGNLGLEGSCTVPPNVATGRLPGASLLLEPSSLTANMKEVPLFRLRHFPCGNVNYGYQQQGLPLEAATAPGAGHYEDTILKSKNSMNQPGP
In short: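 Recombinant human ALK with biotinylated peptide substrate; phosphorylation detected by HTRF using Eu-labelled anti-phosphotyrosine antibody and streptavidin-allophycocyanin. IC50 from a sigmoidal fit with Hill slope.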

[3] = target: T2, human JAK3 (a.a. 781-1124) (Homo sapiens, UniProt P52333); test: In vitro JAK kinase assay (HTRF, phosphorylation of a biotinylated peptide), JAK3; format: biochemical
T2 construct: JAK3 (a.a. 781-1124); His tag (N); made in house; host or cells: insect cells (baculovirus)
T2 sequence (P52333 781-1124): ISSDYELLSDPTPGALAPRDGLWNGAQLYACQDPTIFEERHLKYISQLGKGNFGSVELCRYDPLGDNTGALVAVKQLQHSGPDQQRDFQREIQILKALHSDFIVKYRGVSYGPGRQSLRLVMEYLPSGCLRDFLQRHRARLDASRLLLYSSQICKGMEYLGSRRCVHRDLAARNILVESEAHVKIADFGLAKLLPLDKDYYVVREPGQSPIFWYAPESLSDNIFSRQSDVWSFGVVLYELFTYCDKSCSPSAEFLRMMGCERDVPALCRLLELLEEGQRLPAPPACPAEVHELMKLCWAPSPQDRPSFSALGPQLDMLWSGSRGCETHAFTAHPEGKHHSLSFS
In short: (§1)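 Kinase reactions ran at room temperature for 1 h with ATP matched per isoform (JAK1 90 μM, JAK2 30 μM, JAK3 3 μM). After an EDTA stop, the phosphorylated biotin-peptide was read by HTRF using Eu-Py20 and SA-APC after 40 min binding.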

[4] = target: T3, human JAK1 (a.a. 837-1142) (Homo sapiens, UniProt P23458); test: In vitro JAK kinase assay (HTRF, phosphorylation of a biotinylated peptide), JAK1; format: biochemical; details: read-out: JAK1 IC50
T3 construct: human JAK1 (a.a. 837-1142); His tag (N); made in house; host or cells: insect cells (baculovirus)
T3 sequence (P23458 849-1154): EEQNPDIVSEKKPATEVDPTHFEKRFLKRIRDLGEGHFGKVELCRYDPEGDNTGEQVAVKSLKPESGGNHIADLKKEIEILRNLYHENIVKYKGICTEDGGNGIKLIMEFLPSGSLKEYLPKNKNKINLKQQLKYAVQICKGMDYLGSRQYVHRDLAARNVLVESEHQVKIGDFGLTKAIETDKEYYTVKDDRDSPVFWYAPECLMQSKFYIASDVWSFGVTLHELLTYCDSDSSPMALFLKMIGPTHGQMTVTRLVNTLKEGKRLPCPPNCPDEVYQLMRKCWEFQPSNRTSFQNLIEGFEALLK
In short: as §1

[5] = target: T4, human JAK2 (a.a. 828-1132) (Homo sapiens, UniProt O60674); test: In vitro JAK kinase assay (HTRF, phosphorylation of a biotinylated peptide), JAK2; format: biochemical
T4 construct: JAK2 (a.a. 828-1132); His tag (N); made in house; host or cells: insect cells (baculovirus)
T4 sequence (O60674 828-1132): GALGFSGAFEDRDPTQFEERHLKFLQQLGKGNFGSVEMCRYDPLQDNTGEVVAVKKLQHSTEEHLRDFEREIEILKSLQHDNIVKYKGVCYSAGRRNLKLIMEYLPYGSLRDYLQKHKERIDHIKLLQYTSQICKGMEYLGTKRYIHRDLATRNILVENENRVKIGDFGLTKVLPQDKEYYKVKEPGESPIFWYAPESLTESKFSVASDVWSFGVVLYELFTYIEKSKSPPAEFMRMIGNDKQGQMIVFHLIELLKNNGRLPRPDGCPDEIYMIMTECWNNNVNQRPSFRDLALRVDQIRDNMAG
In short: as §1

TYK2 = TYK2 (Homo sapiens, UniProt P29597); test: TYK2 kinase inhibition (Table A1); format: biochemical
Chain of TYK2 (P29597 whole entry): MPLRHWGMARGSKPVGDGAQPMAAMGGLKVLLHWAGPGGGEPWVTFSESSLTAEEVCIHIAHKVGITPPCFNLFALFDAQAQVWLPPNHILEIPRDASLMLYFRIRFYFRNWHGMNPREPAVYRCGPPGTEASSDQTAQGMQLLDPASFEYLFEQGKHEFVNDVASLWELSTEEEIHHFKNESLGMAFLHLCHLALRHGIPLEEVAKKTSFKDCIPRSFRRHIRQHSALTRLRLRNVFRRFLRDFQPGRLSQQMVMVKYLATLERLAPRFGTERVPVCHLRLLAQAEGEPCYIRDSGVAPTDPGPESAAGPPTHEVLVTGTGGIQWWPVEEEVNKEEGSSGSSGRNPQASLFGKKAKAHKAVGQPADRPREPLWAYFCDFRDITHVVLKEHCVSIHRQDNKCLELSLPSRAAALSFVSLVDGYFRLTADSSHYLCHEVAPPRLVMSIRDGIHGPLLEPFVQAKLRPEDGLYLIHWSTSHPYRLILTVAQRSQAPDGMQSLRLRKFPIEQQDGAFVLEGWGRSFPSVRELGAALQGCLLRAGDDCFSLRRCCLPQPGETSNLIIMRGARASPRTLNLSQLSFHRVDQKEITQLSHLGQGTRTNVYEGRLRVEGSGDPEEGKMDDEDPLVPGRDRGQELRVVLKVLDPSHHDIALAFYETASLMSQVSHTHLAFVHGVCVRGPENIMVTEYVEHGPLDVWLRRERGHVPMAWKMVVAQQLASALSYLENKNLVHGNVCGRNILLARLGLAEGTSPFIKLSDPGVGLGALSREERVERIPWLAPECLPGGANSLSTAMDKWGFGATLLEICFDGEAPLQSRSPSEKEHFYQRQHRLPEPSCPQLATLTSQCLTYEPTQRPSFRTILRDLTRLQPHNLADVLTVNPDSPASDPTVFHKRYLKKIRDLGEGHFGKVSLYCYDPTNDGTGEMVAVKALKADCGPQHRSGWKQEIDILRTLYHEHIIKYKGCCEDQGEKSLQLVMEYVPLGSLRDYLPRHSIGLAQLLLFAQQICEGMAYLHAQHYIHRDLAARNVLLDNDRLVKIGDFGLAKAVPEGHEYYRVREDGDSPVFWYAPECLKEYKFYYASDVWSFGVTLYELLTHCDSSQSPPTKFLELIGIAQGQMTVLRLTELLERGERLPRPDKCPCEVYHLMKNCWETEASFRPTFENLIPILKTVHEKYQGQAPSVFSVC

Compound | IC50 [2] [nM] | IC50 ([3]; Table D1) [nM] | IC50 ([4]; Table D1) [nM] | IC50 ([5]; Table D1) [nM] | IC50 (TYK2; Table D1) [nM] | further results
Nc1ccc2cc1CCc1cncc(c1)Nc1ncc(F)c(n1)N2 | – | – | – | – | – | ring closure, yield after HPLC ([1]; from Nc1cncc(CCc2cc(Nc3nc(Cl)ncc3F)ccc2N)c1, Pd(OAc)2/Xantphos/Cs2CO3/Et3N, 1,4-dioxane, 158.0 mM, 160.0 °C, 0.33 h): 8%
Nc1ccc2cc1CCc1cncc(c1)Nc1ncc(Cl)c(n1)N2 [Example B20, 6-Chloro-2,4,8,18,22-pentaazatetracyclo[14.3.1.1(3,7).1(9,13)]docosa-1(20),3(22),4,6,9(21),10,12,16,18-nonaen-12-amine tris(trifluoroacetate)] | – | – | – | – | – | ring closure, yield after HPLC ([1]; from Nc1cncc(CCc2cc(Nc3nc(Cl)ncc3Cl)ccc2N)c1, Pd2(dba)3/Xantphos/Cs2CO3/DIEA, 1,4-dioxane/DMF 3:1, 77.0 mM, 160.0 °C, 0.5 h): 23%; ALK % of inhibition at a concentration of 500 nM or 1 mM ([2]; compound at a concentration of 500 nM or 1 mM (not specified), cells shown as percentage): 51%; IC50 ([3]; Table B1): 6.7 nM; IC50 ([4]; Table B1): 1 nM; IC50 ([5]; Table B1): 1.3 nM; IC50 (TYK2; Table B1): 1.6 nM
Clc1cnc2nc1Nc1cccc(c1)CCc1cncc(c1)N2 [Example C19, 6-Chloro-2,4,8,18,22-pentaazatetracyclo[14.3.1.1(3,7).1(9,13)]docosa-1(20),3(22),4,6,9(21),10,12,16,18-nonaene bis(trifluoroacetate)] | – | – | – | – | – | ring closure, yield after HPLC ([1]; from Nc1cncc(CCc2cccc(Nc3nc(Cl)ncc3Cl)c2)c1, Pd(OAc)2/Xantphos/Cs2CO3/Et3N, 1,4-dioxane, 140.0 mM, 150.0 °C, 1.0 h): 28%; ALK % inhibition at a concentration of 500 nM or 1 mM [2]: 45%; IC50 [3]: 28 nM; IC50 [4]: 2.9 nM; IC50 [5]: 7 nM; IC50 (TYK2): 10 nM
Clc1cnc2nc1Nc1cccc(c1)/C=C\c1cncc(c1)N2 [Example C20, (14Z)-6-Chloro-2,4,8,18,22-pentaazatetracyclo[14.3.1.1(3,7).1(9,13)]docosa-1(20),3(22),4,6,9(21),10,12,14,16,18-decaene bis(trifluoroacetate)] | – | – | – | – | – | ring closure, yield after HPLC ([1]; from Nc1cncc(/C=C\c2cccc(Nc3nc(Cl)ncc3Cl)c2)c1, Pd(OAc)2/Xantphos/Cs2CO3/Et3N, 1,4-dioxane, 70.0 mM, 150.0 °C, 1.0 h): 30%; ALK % inhibition at a concentration of 500 nM or 1 mM [2]: 26%; IC50 [3]: 13 nM; IC50 [4]: 2.9 nM; IC50 [5]: 2.3 nM; IC50 (TYK2): 4.4 nM
Fc1cnc2nc1Nc1cccc(c1)CCc1cncc(c1)N2 [Example C21, 6-Fluoro-2,4,8,18,22-pentaazatetracyclo[14.3.1.1(3,7).1(9,13)]docosa-1(20),3(22),4,6,9(21),10,12,16,18-nonaene bis(trifluoroacetate)] | – | – | – | – | – | ring closure, yield after HPLC ([1]; from Nc1cncc(CCc2cccc(Nc3nc(Cl)ncc3F)c2)c1, Pd(OAc)2/Xantphos/Cs2CO3/Et3N, 1,4-dioxane, 87.0 mM, 150.0 °C, 2.0 h): 37%; ALK % inhibition at a concentration of 500 nM or 1 mM [2]: 26%; IC50 [3]: 111 nM; IC50 [4]: 13 nM; IC50 [5]: 28 nM; IC50 (TYK2): 15 nM
Cc1cnc2nc1Nc1ccc(N)c(c1)CCc1cncc(c1)N2 [Example C50, 6-Methyl-2,4,8,18,22-pentaazatetracyclo[14.3.1.1(3,7).1(9,13)]docosa-1(20),3(22),4,6,9(21),10,12,16,18-nonaen-12-amine tris(trifluoroacetate)] | – | – | – | – | – | ring closure, yield after HPLC ([1]; from Cc1cnc(Cl)nc1Nc1ccc(N)c(CCc2cncc(N)c2)c1, Pd(OAc)2/Xantphos/Cs2CO3/Et3N, 1,4-dioxane, 135.0 mM, 160.0 °C, 0.33 h): 50%; IC50 [3]: > 400 nM; IC50 [4]: 33 nM; IC50 [5]: 111 nM; IC50 (TYK2): 80 nM

Continued, in another order:

IC50 [2] [nM] | IC50 ([3]; Table D1) [nM] | IC50 ([4]; Table D1) [nM] | IC50 ([5]; Table D1) [nM] | IC50 (TYK2; Table D1) [nM] | Compound | further results
160 | 8.6 | 3.5 | 1.4 | 8.4 | Cc1nc(S(=O)(=O)Nc2cc3cc(c2)OCCSc2cccc(c2)Nc2nc(ncc2Cl)N3)cn1C [Example D69, N-[6-Chloro-17-oxa-14-thia-2,4,8,24-tetraazatetracyclo[16.3.1.1(3,7).1(9,13)]tetracosa-1(22),3(24),4,6,9(23),10,12,18,20-nonaen-20-yl]-1,2-dimethyl-1H-imidazole-4-sulfonamide bis(trifluoroacetate)] | –
375 | 8.1 | 9 | 2.1 | 5 | Clc1cnc2nc1Nc1cccc(c1)OCCNc1cccc(c1)N2 [Example D70, 6-Chloro-14-oxa-2,4,8,17,24-pentaazatetracyclo[16.3.1.1(3,7).1(9,13)]tetracosa-1(22),3(24),4,6,9(23),10,12,18,20-nonaene bis(trifluoroacetate)] | –
> 1000 | 65 | 151 | 187 | 300 | CC(=O)N1Cc2cccc(c2)Nc2nc(ncc2Cl)Nc2cccc1c2 [Example D71, 15-Acetyl-6-chloro-2,4,8,15,22-pentaazatetracyclo[14.3.1.1(3,7).1(9,13)]docosa-1(20),3(22),4,6,9(21),10,12,16,18-nonaene trifluoroacetate] | –
772 | 7.4 | 12 | 2.2 | 6.9 | Clc1cnc2nc1Nc1cccc(c1)NCCOc1cccc(c1)N2 [Example D72, 6-Chloro-17-oxa-2,4,8,14,24-pentaazatetracyclo[16.3.1.1(3,7).1(9,13)]tetracosa-1(22),3(24),4,6,9(23),10,12,18,20-nonaene bis(trifluoroacetate)] | –
1330 | 67 | 83 | 106 | 191 | Clc1cnc2nc1Nc1cccc(c1)CNCc1cccc(c1)N2 [Example D73, 6-Chloro-2,4,8,15,23-pentaazatetracyclo[15.3.1.1(3,7).1(9,13)]tricosa-1(21),3(23),4,6,9(22),10,12,17,19-nonaene bis(trifluoroacetate)] | –
> 1000 | 225 | 160 | 83 | 343 | CC(=O)N1Cc2cccc(c2)Nc2ncc(Cl)c(n2)Nc2cccc(c2)C1 [Example D74, 15-Acetyl-6-chloro-2,4,8,15,23-pentaazatetracyclo[15.3.1.1(3,7).1(9,13)]tricosa-1(21),3(23),4,6,9(22),10,12,17,19-nonaene trifluoroacetate] | –
1250 | 80 | 50 | 26 | 60 | Clc1cnc2nc1Nc1cccc(c1)NCCCc1cccc(c1)N2 [Example D75, 6-Chloro-2,4,8,14,24-pentaazatetracyclo[16.3.1.1(3,7).1(9,13)]tetracosa-1(22),3(24),4,6,9(23),10,12,18,20-nonaene bis(trifluoroacetate)] | –
2050 | 117 | 11 | 18 | 13 | O=C1CCc2cccc(c2)Nc2nc(ncc2Cl)Nc2cccc(c2)N1 [Example D76, 6-Chloro-2,4,8,17,24-pentaazatetracyclo[16.3.1.1(3,7).1(9,13)]tetracosa-1(22),3(24),4,6,9(23),10,12,18,20-nonaen-16-one trifluoroacetate] | –
400 | 11 | 8.9 | 3.1 | 5.6 | Clc1cnc2nc1Nc1cccc(c1)CCCNc1cccc(c1)N2 [Example D77, 6-Chloro-2,4,8,17,24-pentaazatetracyclo[16.3.1.1(3,7).1(9,13)]tetracosa-1(22),3(24),4,6,9(23),10,12,18,20-nonaene bis(trifluoroacetate)] | –
791 | 30 | 30 | 10 | 19 | Clc1cnc2nc1Nc1cccc(c1)CCNc1cccc(c1)N2 [Example D78, 6-Chloro-2,4,8,16,23-pentaazatetracyclo[15.3.1.1(3,7).1(9,13)]tricosa-1(21), 3(23),4,6,9(22),10,12,17,19-nonaene bis(trifluoroacetate)] | –
570 | 23 | 7.4 | 4.9 | 8.8 | Clc1cnc2nc1Nc1cccc(c1)SCCNc1cccc(c1)N2 [Example D80, 6-Chloro-14-thia-2,4,8,17,24-pentaazatetracyclo[16.3.1.1(3,7).1(9,13)]tetracosa-1(22),3(24),4,6,9(23),10,12,18,20-nonaene bis(trifluoroacetate)] | –
> 10000 | 130 | 12 | 16 | 53 | N#Cc1ccc2cc1OCCSc1cccc(c1)Nc1nc(ncc1Cl)N2 [Example D81, 6-Chloro-17-oxa-14-thia-2,4,8,24-tetraazatetracyclo[16.3.1.1(3,7).1(9,13)]tetracosa-1(22),3(24),4,6,9(23),10,12,18,20-nonaene-19-carbonitrile trifluoroacetate] | –
